Test results published in ChEMBL document CHEMBL1157539, “Thousands of chemical starting points for antimalarial lead identification” (Nature, 2010).

Tested on: Plasmodium falciparum
Assay: GSK_TCMDC: Inhibition of Plasmodium falciparum 3D7 in whole erythrocytes, using parasite LDH activity as an index of growth.
Format: functional, organism-based
Details: Plasmodium falciparum, 3D7

Row | Structure (SMILES) | XC50 [nM]
1 | CCN(CC)CCN(Cc1ccc(-c2ccc(C(F)(F)F)cc2)cc1)C(=O)Cn1c(CCc2c(F)ccc(F)c2F)nc(=O)c2ccccc21 | 238
2 | CCOc1cc(Cc2cnc(N)nc2N)cc(OC)c1OC | 913
3 | Cc1ccc(NC(=O)C2CCC2)cc1-c1ccc(C(=O)NCC2CC2)cc1 | 742
4 | COc1ccccc1C1CCN(C2CCC(NC(=O)/C=C/c3ccc(F)c(F)c3)CC2)CC1 (stereo unspecified) | 1320
5 | CS(=O)(=O)CCNCc1nc(-c2ccc3c(Nc4ccc(Oc5ccccn5)cc4)ccnc3c2)cs1 | 675
6 | COc1ccc(C(=O)CCC(=O)N(Cc2ccc(-c3ccc(CNCc4cccnc4)cn3)cc2)C2CCN(Cc3ccccc3)CC2)cc1F | 978
7 | O=C(Nc1ccc2c(c1)CCN2C1CCN(Cc2csc3ccccc23)C1)c1ccco1 (stereo unspecified) | 322
8 | CC(C)CCN1CCC(Oc2ccc(NC(=O)c3cccs3)cc2Cl)CC1 | 341
9 | c1cc(CNCC2CCCO2)cc(-c2cccc(-c3nc4ccccc4[nH]3)c2)c1 (stereo unspecified) | 859
10 | O=C(Nc1ccc(Cl)c(Cl)c1)N1CCC(NCc2cccc([N+](=O)[O-])c2)CC1 | 763
11 | CCCc1ccc(Cc2cnc3nc(N)nc(N)c3c2C)cc1 | 283
12 | O=C(Nc1cccc(-c2cccc(-c3nc4ccccc4[nH]3)c2)c1)c1ccoc1 | 741
13 | NC1CCN(Cc2ccc(-c3ccc(-c4nc5ccccc5[nH]4)cc3)cc2)C1 (stereo unspecified) | 147
14 | CCCC(=O)Nc1ccc(OCCCN(Cc2cccc(C(F)(F)F)c2)c2ccc(C#N)c(C(F)(F)F)c2)cc1 | 1090
15 | c1ccc(Cn2nnnc2-c2cccc(Nc3ccnc4cc(-c5nccs5)ccc34)c2)cc1 | 826
16 | CCCSc1nc2c(c(=O)n1CCc1ccccc1)C1(CCCC1)Cc1ccccc1-2 | 702
17 | COc1ccccc1C1CCN(C2CCC(NC(=O)/C=C/c3cccc(Cl)c3F)CC2)CC1 (stereo unspecified) | 1290
18 | Cc1[nH]c(C)c(-c2ccc(-c3ccccc3F)nc2)c(=O)c1Cl | 250
19 | COc1ccc(-c2ccc(CNC(=O)c3ccc(Cl)cc3)c(F)c2)cc1CN1CCCN(C)CC1 | 705
20 | O=C(NC1CCC(N2CCC3(CC2)C(=O)NCN3c2ccccc2)CC1)c1cc2ccccc2[nH]1 (stereo unspecified) | 679
21 | CCc1cc(NCc2ccncc2)nc(Nc2ccc(F)cc2)n1 | 1330
22 | CCCN1CCC2(CC1)NC(C(=O)NCCC(C)C)Cc1c2[nH]c2cc(Cl)ccc12 (stereo unspecified) | 1380
23 | O=S(=O)(Nc1cccc(CCN2CCC(N3CCCCC3)CC2)c1)c1ccc(Oc2ccccc2)nc1 | 928
24 | Cc1cc(C(=O)Nc2ccc(C)c(-c3nc(N(C(=O)c4ccc(F)c(C)c4)C4CCNCC4)nc4c3ccc(=O)n4-c3c(F)cccc3F)c2)ccc1F | 319

Row | Structure (SMILES) | XC50 [nM]
25 | Cc1ccccc1C1CCN(C2CCC(NC(=O)/C=C/c3ccc(C(F)(F)F)cc3)CC2)CC1 (stereo unspecified) | 1040
26 | CCCNCc1ccc(-c2ccc(CN(Cc3cnc(C)cn3)C(=O)c3nn(-c4ccccc4)nc3C)cc2)nc1 | 419
27 | CCCCCN1CCCN(Cc2cccc(NC(=O)c3ccc(-c4ccccc4)cc3)c2)CC1 | 697
28 | CCN1CCN(c2cc(C)c3cc(NC(=O)c4cccc([N+](=O)[O-])c4)ccc3n2)CC1 | 524
29 | Cc1cccc2nc(-c3cccc(-c4cccc(C(=O)NCCc5cn(C)cn5)c4)c3)[nH]c12 | 588
30 | CN(C(=O)c1nn(-c2ccccn2)c2nccc(-c3cccs3)c12)C1CCCCC1 | 1240
31 | COCc1nc(-c2ccccc2)nc(N2CCN(C(=O)NC(C)C)CC2)c1Cc1ccccc1F | 1000
32 | CCN(CCCN1CCCCC1)c1cc(C)nc(Nc2cc(C)ccc2C)n1 | 664
33 | O=S(=O)(c1ccccc1C(F)(F)F)C1CC2CCC(C1)N2S(=O)(=O)c1ccc(Cl)c(C(F)(F)F)c1 (stereo unspecified) | 706
34 | COc1cc(NCCCNC(=O)c2cn(Cc3ccccc3)c3ccccc23)nc2ccccc12 | 868
35 | CN(c1cc(NC(=O)c2ccccc2)ccn1)C1CCN(Cc2cccc(F)c2)CC1 | 738
36 | NS(=O)(=O)c1cccc(-c2ccc3nccc(-c4cccc(S(N)(=O)=O)c4)c3c2)c1 | 1270
37 | CN1C(C)(C)CC(NC(=O)c2ccc(-c3nc4cc(Cl)ccc4[nH]3)cc2)CC1(C)C | 991
38 | COc1ccc(Nc2nccc(-c3ccc4ccnc(NCCCCN)c4c3)n2)cc1 | 750
39 | CCCCCCN1CCCN(Cc2ccc(C(=O)Nc3ccc(Cl)cc3)cc2)CC1 | 1210
40 | COc1ccc(NS(=O)(=O)c2cc(NC(=O)Cn3ccccc3=O)ccc2N2CCCCC2)cc1 | 695
41 | COc1ccc(Cn2c(Nc3cccc(C(F)(F)F)c3)nc3cc(C(=O)NCCN4CCCC4)cnc32)cc1Cl | 915
42 | Cc1cc(Oc2cc(NC(=O)c3sc4ncn(Cc5ccccc5F)c(=O)c4c3C)cc([N+](=O)[O-])c2)ccc1Cl | 1150
43 | Cc1ccc(C2CCN(CCCCNC(=O)c3ccc(-c4ccc(C(F)(F)F)cc4)cc3)CC2)c(O)c1 | 128
44 | CC(=O)Nc1cccc(C(=O)Nc2nc3ccc(-c4cc(=O)[nH]c(Nc5ccccc5Cl)n4)cc3[nH]2)c1 | 689
45 | CN(C)CCCOc1cc(NC(=O)Nc2ccc(-c3ccncc3)c3ccccc23)ccc1I | 699
46 | CCCc1nc2c(N3CC(NC(=O)/C=C/c4ccccc4)C3)cccc2n1C1CC1 | 554
47 | O=C(/C=C/c1ccc(Cl)c(Cl)c1)N1CCC(CN2CCC(c3c(Br)[nH]c4ccccc34)CC2)CC1 | 289
48 | Cc1cc(NCCC(=O)NCCOc2ccccc2)nc(NCCc2ccccc2)n1 | 1230

Row | Structure (SMILES) | XC50 [nM]
49 | CCn1c(Sc2ccc([N+](=O)[O-])c(C#N)c2)nnc1-c1cccc(Cl)c1 | 873
50 | CCOC(=O)c1ccc(NC(=O)Nc2cccc(-c3cccc(-c4nc5ccccc5[nH]4)c3)c2)cc1 | 68.7
51 | O=C(/C=C/c1ccc(Cl)c(Cl)c1)Nc1cccc(CN2CCC(c3c[nH]c4ccc(O)cc34)CC2)c1 | 945
52 | c1ccc(Oc2ccc(Nc3ccnc4cc(-c5ccc(CNCCN6CCOCC6)o5)ccc34)cc2)nc1 | 1440
53 | O=C(CCN1CCCCC1)Nc1ccc(Nc2nccc(NCC(O)c3ccccc3)n2)cc1 (stereo unspecified) | 721
54 | Cc1ccccc1C1CCN(C2CCC(NC(=O)c3ccc(-c4cccs4)s3)CC2)CC1 (stereo unspecified) | 1030
55 | Cc1ccc(Cc2c(C)nc3nc(N)nc(N)c3c2C)cc1 | 243
56 | Nc1ncnc2cc(-c3cccc(NC(=O)Nc4ccccc4)c3)sc12 | 705
57 | c1ccc(-c2csc(Nc3nc4cc5c(cc4s3)OCO5)n2)nc1 | 579
58 | CCOc1ccc(Br)cc1/C=C/C(=O)Nc1ccc2c(c1)C1CCC2N1C (stereo unspecified) | 1050
59 | O=C(NCc1ccc(F)cc1)Nc1cccc(-c2ccc(-c3nc4ccccc4[nH]3)cc2)c1 | 165
60 | CCCCN1CCN(c2cc(NS(=O)(=O)c3ccc(C(=O)Nc4ccc(C(F)(F)F)cc4)cc3)ccc2OC)CC1 | 664
61 | O=C(Nc1ccsc1)Nc1cccc(-c2ccc(-c3nc4cc(C(F)(F)F)ccc4[nH]3)cc2)c1 | 351
62 | OC1CCCN(Cc2cccc(-c3ccc(-c4nc5cc(C(F)(F)F)ccc5[nH]4)cc3)c2)C1 (stereo unspecified) | 690
63 | O=S(=O)(Nc1ccc2nccc(N3CCNCC3)c2c1)c1ccc2oc3ccccc3c2c1 | 695
64 | CC(C)CCn1c(Sc2ccc(C#N)c([N+](=O)[O-])c2)nnc1-c1cccc(Cl)c1 | 673
65 | O=C(NC1CCCCC1)c1csc(C2CCCN(C(=O)c3ccc(O)c(-c4cccc(C(F)(F)F)c4)c3)C2)n1 (stereo unspecified) | 1670
66 | CCOc1cc2ncnc(Nc3cc(Cl)c(Cl)c(Cl)c3)c2cc1OCC | 197
67 | COc1cc(-c2cnc(N)c(-c3nc4ccccc4[nH]3)c2)cc(OC)c1OC | 191
68 | CCn1c(-c2nonc2N)nc2c(-c3cccc(NC(=O)Nc4ccc(Cl)cc4)c3)ncc(OCCCN)c21 | 828
69 | CC(C)(C)Oc1ccc(C[C@@H]2NC3(C(=O)N(Cc4ccc(Cl)c(Cl)c4)c4ccccc43)C3C(=O)N(c4ccc(Br)cc4)C(=O)C32)cc1 (stereo partly specified) | 1040
70 | NC(=O)C1CCN(Cc2ccc(-c3cccc(-c4nc5cc(F)ccc5[nH]4)c3)cc2)CC1 | 879
71 | Cc1cc(C(=O)Nc2ccc3c(c2)CCN3C2CCN(Cc3cccc4cc[nH]c34)C2)no1 (stereo unspecified) | 189
72 | Cc1nc(N)nc(N)c1-c1cc(Cl)c(Cl)c(Cl)c1 | 834

Row | Structure (SMILES) | XC50 [nM]
73 | COc1ccccc1-c1[nH]c2ccccc2c1CN1CCC(c2c(C)cccc2C)CC1 | 918
74 | Cc1nn(-c2cccc(Cl)c2)c2c1C(C(=O)c1ccc3c(c1)OCO3)CC(=O)N2 (stereo unspecified) | 371
75 | COC(=O)c1noc(C)c1I | 802
76 | Cc1cc(C(=O)CN2C(=O)NC3(CCCc4ccccc43)C2=O)c(C)n1Cc1ccc(F)cc1 (stereo unspecified) | 970
77 | CC(=O)Nc1ccc2[nH]cc(C3CCN(CCC4CCN(C(=O)/C=C/c5ccc(Cl)c(Cl)c5)CC4)CC3)c2n1 | 518
78 | Cc1nnc(NC(=O)c2cn(-c3ccccc3)nc2-c2ccccc2C)o1 | 565
79 | O=S(=O)(Nc1cc2c(cc1O)CCN(C1CCC1)CC2)c1ccc(Oc2ccc(F)cc2)cc1 | 775
80 | COc1ccc2ncc(F)c(CCN3CC[C@H](NCc4cc5c(s4)CCCN5)[C@H](O)C3)c2n1 | 962
81 | CC1CN(c2cnn(Cc3ccc(NC(=O)Nc4ccc(F)cc4[N+](=O)[O-])cc3)c(=O)c2Cl)CC(C)N1 (stereo unspecified) | 808
82 | CNCCCNc1ccnc2cc(Cl)ccc12 | 62.4
83 | CC(C)c1ccc(OCC(O)CN(CCN2CCOCC2)C(=O)Nc2ccc(Br)cc2)cc1 (stereo unspecified) | 717
84 | COc1ccc2sc(CNCCCNc3cc(=O)c4ccccc4[nH]3)c(Cl)c2c1 | 1070
85 | CC(=O)Nc1ccc(CN2CCC(N(C)c3cc(NC(=O)c4cccs4)ccn3)CC2)cc1 | 892
86 | COc1ccc(Nc2ccnc3cc(Cl)ccc23)cc1OC | 1120
87 | O=C(Nc1cccc(CN2CCCN(Cc3ncc[nH]3)CC2)c1)c1ccc(Cl)c(Cl)c1 | 795
88 | FC(F)(F)c1ccc(CNC2CCN(CC3CCCCC3)CC2)cc1 | 933
89 | Cc1ccc2[nH]c(-c3ccc(C=CC(=O)NC4CCN(Cc5ccccc5)CC4)cc3)nc2c1 | 684
90 | O=C(/C=C/c1ccc(Cl)c(Cl)c1)NCCCCN1CCCN(C(=O)Nc2ccc(Cl)c(Cl)c2)CC1 | 859
91 | Clc1ccc(-c2cc3c(NCc4ccncc4)nccc3s2)cc1 | 852
92 | COc1ccc(CNCc2ccc(-c3cccc(-c4nc5cc(C(F)(F)F)ccc5[nH]4)c3)cc2)cc1 | 151
93 | COc1ccccc1-c1csc(C(=O)NCC2CCN(Cc3ccc(C(C)C)cc3)C2)c1 (stereo unspecified) | 1350
94 | CCN(CC)CCCNCc1ccc(-c2ccc(C(F)(F)F)cc2)cc1 | 993
95 | CCN(CC)CCCNc1nccc(N(C)c2ccc(NC(=O)Nc3cc(C(F)(F)F)ccc3F)cc2)n1 | 1050
96 | NCCNc1ccnc2cc(Cl)ccc12 | 125
